Measurements published in BindingDB's records for doi:10.1016/j.chembiol.2015.10.013 (Pfizer, 2015).

Assays:
CREB-binding protein [1] = target: T1, CREB-binding protein (Homo sapiens, UniProt Q92793); experiment: CBP Fluorescence Resonance Energy Transfer (FRET)
[2] = target: T2, Bromodomain-containing protein 4 (Homo sapiens, UniProt O60885); experiment: BRD4 Fluorescence Polarization (FP)
[3] = target: T2, Bromodomain-containing protein 4; experiment: ITC
CREB-binding protein [4] = target: T1, CREB-binding protein; experiment: ITC

T1 sequence (Q92793 whole entry): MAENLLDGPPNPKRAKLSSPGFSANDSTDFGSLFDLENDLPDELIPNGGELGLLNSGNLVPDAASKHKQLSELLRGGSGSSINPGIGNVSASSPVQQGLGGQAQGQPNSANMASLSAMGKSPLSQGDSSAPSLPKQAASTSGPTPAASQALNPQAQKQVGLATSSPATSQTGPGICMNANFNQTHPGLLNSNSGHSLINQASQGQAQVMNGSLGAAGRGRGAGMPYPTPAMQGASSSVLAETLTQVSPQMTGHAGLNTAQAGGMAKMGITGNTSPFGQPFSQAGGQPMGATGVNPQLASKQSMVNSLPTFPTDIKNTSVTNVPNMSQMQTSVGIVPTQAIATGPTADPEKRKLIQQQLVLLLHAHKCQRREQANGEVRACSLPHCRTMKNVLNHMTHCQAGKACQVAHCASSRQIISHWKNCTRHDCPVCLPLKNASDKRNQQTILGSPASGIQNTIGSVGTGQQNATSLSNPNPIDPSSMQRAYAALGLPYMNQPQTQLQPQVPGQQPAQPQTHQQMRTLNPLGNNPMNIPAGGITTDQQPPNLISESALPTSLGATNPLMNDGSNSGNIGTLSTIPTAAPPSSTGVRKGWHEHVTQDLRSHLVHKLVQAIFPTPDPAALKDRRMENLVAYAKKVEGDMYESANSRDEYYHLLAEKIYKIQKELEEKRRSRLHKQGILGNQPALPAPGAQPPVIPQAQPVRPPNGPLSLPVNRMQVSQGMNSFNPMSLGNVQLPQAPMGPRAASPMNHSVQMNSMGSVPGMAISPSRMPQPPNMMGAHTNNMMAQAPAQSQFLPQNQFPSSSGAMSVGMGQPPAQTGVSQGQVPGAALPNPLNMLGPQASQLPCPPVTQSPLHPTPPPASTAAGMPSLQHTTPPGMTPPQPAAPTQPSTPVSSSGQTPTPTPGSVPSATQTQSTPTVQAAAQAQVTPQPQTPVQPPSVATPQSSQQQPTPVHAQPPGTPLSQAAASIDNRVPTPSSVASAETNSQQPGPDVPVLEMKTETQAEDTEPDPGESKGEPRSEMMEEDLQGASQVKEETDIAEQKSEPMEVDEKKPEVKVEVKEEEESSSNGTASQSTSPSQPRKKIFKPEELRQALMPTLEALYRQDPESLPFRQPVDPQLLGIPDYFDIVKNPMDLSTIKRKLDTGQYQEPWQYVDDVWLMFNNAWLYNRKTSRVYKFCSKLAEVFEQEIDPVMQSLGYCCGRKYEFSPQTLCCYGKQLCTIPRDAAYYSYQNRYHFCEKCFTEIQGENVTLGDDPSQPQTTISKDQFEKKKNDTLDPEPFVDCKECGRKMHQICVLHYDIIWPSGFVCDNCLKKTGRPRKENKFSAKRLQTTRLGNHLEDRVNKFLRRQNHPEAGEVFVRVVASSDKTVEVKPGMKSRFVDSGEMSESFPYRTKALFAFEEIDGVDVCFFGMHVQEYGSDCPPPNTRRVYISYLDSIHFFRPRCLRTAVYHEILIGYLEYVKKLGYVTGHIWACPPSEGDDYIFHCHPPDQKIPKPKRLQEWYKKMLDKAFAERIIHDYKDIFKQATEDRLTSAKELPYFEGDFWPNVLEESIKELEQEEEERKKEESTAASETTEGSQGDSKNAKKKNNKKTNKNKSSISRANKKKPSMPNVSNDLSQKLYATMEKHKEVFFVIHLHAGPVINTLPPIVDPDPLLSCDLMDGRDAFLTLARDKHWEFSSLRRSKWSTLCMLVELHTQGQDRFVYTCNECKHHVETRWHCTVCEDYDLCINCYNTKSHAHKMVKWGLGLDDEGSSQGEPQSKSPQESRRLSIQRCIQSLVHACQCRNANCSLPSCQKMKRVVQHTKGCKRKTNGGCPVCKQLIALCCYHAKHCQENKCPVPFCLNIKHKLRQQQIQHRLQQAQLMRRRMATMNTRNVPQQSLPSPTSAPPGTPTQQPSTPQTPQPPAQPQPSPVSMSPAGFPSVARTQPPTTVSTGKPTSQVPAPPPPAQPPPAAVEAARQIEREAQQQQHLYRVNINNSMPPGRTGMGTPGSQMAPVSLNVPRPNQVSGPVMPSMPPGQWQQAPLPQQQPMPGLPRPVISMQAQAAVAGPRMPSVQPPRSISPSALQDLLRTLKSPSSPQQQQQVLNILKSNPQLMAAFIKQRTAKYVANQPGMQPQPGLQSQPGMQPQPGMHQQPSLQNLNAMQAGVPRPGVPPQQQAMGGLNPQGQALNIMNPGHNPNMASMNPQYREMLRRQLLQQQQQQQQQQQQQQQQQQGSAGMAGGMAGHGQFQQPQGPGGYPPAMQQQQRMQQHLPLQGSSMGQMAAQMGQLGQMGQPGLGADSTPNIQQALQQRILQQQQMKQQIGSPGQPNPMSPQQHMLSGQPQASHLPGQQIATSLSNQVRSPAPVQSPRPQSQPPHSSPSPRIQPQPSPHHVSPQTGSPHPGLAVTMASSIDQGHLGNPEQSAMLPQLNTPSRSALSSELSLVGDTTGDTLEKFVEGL

Compound | IC50 (CREB-binding protein [1]) [µM] | IC50 [2] [µM] | Kd [3] [µM] | Kd (CREB-binding protein [4]) [µM]
COc1ccc(CCc2nc3c(C)c(-c4c(C)noc4C)c(C)cc3n2CCN2CCOCC2)cc1 [ISOX-INACT] | 10.6 | > 120 | – | –
CCCOc1ccc(CCc2nc3cc(-c4c(C)noc4C)ccc3n2CCN2CCOCC2)cc1 [PF-CBP1] | 0.13 | 18.1 | > 20 | 0.19
